# Results published in patent publication US11999732B2, “P2X3 receptor antagonists” (RECORDATI INDUSTRIA CHIMICA E FARMACEUTICA SPA, priority 2018, dated 2024).
# Molecular target: T1, human P2X3 receptor (Homo sapiens, UniProt P56373)
# T1 construct: expressed in transfected cells; host or cells: CHO-K1
# T1 sequence (P56373 1-397): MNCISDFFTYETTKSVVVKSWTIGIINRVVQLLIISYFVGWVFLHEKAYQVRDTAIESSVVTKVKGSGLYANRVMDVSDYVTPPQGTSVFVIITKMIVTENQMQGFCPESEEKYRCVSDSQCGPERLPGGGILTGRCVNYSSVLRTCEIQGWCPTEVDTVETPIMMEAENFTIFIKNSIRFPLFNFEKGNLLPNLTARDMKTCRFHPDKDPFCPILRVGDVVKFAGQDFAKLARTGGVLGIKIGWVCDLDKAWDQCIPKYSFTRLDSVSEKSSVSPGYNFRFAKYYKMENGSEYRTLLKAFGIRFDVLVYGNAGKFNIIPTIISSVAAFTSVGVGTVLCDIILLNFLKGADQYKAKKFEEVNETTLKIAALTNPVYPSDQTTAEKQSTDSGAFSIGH
# Experiment: Calcium luminescence (photoprotein) assay in CHO-K1 cells co-expressing human P2X3 receptor, α,β-Met-ATP stimulation, FLEXSTATION readout
# Format: cell-based
# Details: Table 6; human P2X3 receptor antagonist activity, CHO-K1 cells, α,β-Met-ATP; read-out: h-P2X3 IC50
# Procedure: The assay for the human purinergic P2X3 receptor has been adapted to the internal screening instrumentation using the FLEXSTATION as reader and a photoprotein as luminescent readout. The assay consists of CHO-K1 cells recombinantly co-expressing the human P2rx3 receptor and a Ca^2+ sensitive photoprotein. Cells are maintained in DMEM F-12 (1:1) mixture (LONZA cat. no BE04-687F/U1) supplemented with 9 mL of 100 mM Sodium Pyruvate (LONZA cat. no BE13-115E), 29 mL of 7.5% Sodium Bicarbonate (LONZA cat. no: BE17-613E), 5.5 mL of 1 M Hepes (LONZA cat. no BE17-737E), 5 mL of 100× Penicillin/Streptomycin (LONZA cat. no DE17-602E) and 50 mL of Fetal Bovine Serum (Sigma cat. no F7524), 1 mg/mL G418 (Sigma cat. no G8168) and 5 µg/ml puromycin (Sigma cat. no P9620). Standard propagation conditions consist of seeding in a P75 flask twice a week, recovering about 20×10^6 cells, corresponding to about 80% confluency. Cells were seeded into black-walled clear bottom 96 well plates at a density of 40000 cells/well in a Tyrode's buffer (Standard Tyrode's buffer: in house solution, 130 mM NaCl, 5 mM KCl, 2 mM CaCl2, 5 mM NaHCO3, 1 mM MgCl2, 20 mM HEPES, pH 7.4). After 24 h the culture medium was replaced with 200 μL/well of coelenterazine in Tyrode's buffer (Coelenterazine: from BIOSYNTH (cat. no C-7001). 10 mM stock solution was prepared in DMSO and glutathione and stored at −20° C.). The plates were incubated for 4 hours at 37° C., and injected with 10 μL/well of test compounds at 25× concentration in Tyrode's buffer. After 4 minutes a second injection of 50 μL/well of 5× α,β-Met-ATP in Tyrode's buffer (α,β-Met-ATP: from Tocris (cat. no 3209), was dissolved at 100 mM in water and stored in aliquots at −20° C.) was performed and the signal of the emitted luminescence was recorded by FLEXSTATION III (Molecular Devices).
# The inhibition curves of the tested compounds at cloned P2X3 receptor were determined by nonlinear regression analysis using software Prism 4.0 (Graphpad, San Diego, Calif.). The IC50 values and pseudo-Hill slope coefficients were estimated by the program.
row,SMILES,IC50 [µM]
1,"COc1ccc(CN2C(=O)N3C(=NCC3C(C)C)c3ncc(N4CCOCC4)cc32)cc1 (centres unmarked) [Example 1, 6-(4-methoxybenzyl)-8-(morpholin-4-yl)-3-(propan-2-yl)-2,6-dihydroimidazo[1,2-c]pyrido[2,3-e]pyrimidin-5(3H)-one]",5.22
2,COc1cc(CN2C(=O)N3C(=NCC3C)c3ncc(N4CCOCC4)cc32)cc(OC)c1 (centres unmarked) [Example 2],1.19
3,COc1cc(CN2C(=O)N3CC(C)N=C3c3ncc(N4CCOCC4)cc32)cc(OC)c1 (centres unmarked) [Example 3],1.16
4,"COc1cc(CN2C(=O)N3CC(C(C)C)N=C3c3ncc(N4CCOCC4)cc32)cc(OC)c1 (centres unmarked) [Example 4, 6-(3,5-dimethoxybenzyl)-8-(morpholin-4-yl)-2-(propan-2-yl)-2,6-dihydroimidazo[1,2-c]pyrido[2,3-e]pyrimidin-5(3H)-one]",0.178
5,"CCC1CN2C(=O)N(Cc3cc(OC)cc(OC)c3)c3cc(N4CCOCC4)cnc3C2=N1 (centres unmarked) [Example 5, 6-(3,5-dimethoxybenzyl)-2-ethyl-8-(morpholin-4-yl)-2,6-dihydroimidazo[1,2-c]pyrido[2,3-e]pyrimidin-5(3H)-one]",0.278
6,"CCC1CN=C2c3ncc(N4CCOCC4)cc3N(Cc3cc(OC)cc(OC)c3)C(=O)N21 (centres unmarked) [Example 6, 6-(3,5-dimethoxybenzyl)-3-ethyl-8-(morpholin-4-yl)-2,6-dihydroimidazo[1,2-c]pyrido[2,3-e]pyrimidin-5(3H)-one]",0.504
7,"COc1cc(CN2C(=O)N3CCN=C3c3ncc(N4CCOCC4)cc32)cc(OC)c1 [Example 7, 6-(3,5-dimethoxybenzyl)-8-(morpholin-4-yl)-2,6-dihydroimidazo[1,2-c]pyrido[2,3-e]pyrimidin-5(3H)-one]",1.64
8,"COc1cc(CN2C(=O)N3C(=NC(C)C3C)c3ncc(N4CCOCC4)cc32)cc(OC)c1 (centres unmarked) [Example 8, 6-(3,5-dimethoxybenzyl)-2,3-dimethyl-8-(morpholin-4-y1)-2,6-dihydroimidazo[1,2-c]pyrido[2,3-e]pyrimidin-5(3H)-one]",0.636
9,"O=C1N2CC(C3CC3)N=C2c2ncc(N3CCOCC3)cc2N1Cc1ccc(Cl)cc1 (centres unmarked) [Example 10, 6-(4-chlorobenzyl)-2-cyclopropyl-8-(morpholin-4-yl)-2,6-dihydroimidazo[1,2-c]pyrido[2,3-e]pyrimidin-5(3H)-one]",0.241
10,"COCC1CN2C(=O)N(Cc3ccc(Cl)cc3)c3cc(N4CCOCC4)cnc3C2=N1 (centres unmarked) [Example 11, 6-(4-chlorobenzyl)-2-(methoxymethyl)-8-(morpholin-4-y1)-2,6-dihydroimidazo[1,2-c]pyrido[2,3-e]pyrimidin-5(3H)-one]",0.358
11,"O=C1N(Cc2ccc(Cl)cc2)c2cc(N3CCOCC3)cnc2C2=NCC(C3CC3)N12 (centres unmarked) [Example 12, 6-(4-chlorobenzyl)-3-cyclopropyl-8-(morpholin-4-yl)-2,6-dihydroimidazo[1,2-c]pyrido[2,3-e]pyrimidin-5(3H)-one]",0.428
12,"COCC1CN=C2c3ncc(N4CCOCC4)cc3N(Cc3ccc(Cl)cc3)C(=O)N21 (centres unmarked) [Example 13, 6-(4-chlorobenzyl)-3-(methoxymethyl)-8-(morpholin-4-y1)-2,6-dihydroimidazo[1,2-c]pyrido[2,3-e]pyrimidin-5(3H)-one]",1.26
13,"CC(C)C1CN2C(=O)N(Cc3ccc(Cl)cc3)c3cc(N4CC5(COC5)C4)cnc3C2=N1 (centres unmarked) [Example 15, 6-(4-chlorobenzyl)-8-(2-oxa-6-azaspiro[3.3]heptan-6-yl)-2-(propan-2-y1)-2,6-dihydroimidazo[1,2-c]pyrido[2,3-e]pyrimidin-5(3H)-one]",1.43
14,"COC1CCN(c2cnc3c(c2)N(Cc2ccc(Cl)cc2)C(=O)N2CC(C(C)C)N=C32)CC1 (centres unmarked) [Example 16, 6-(4-chlorobenzyl)-8-(4-methoxypiperidin-1-yl)-2-(propan-2-yl)-2,6-dihydroimidazo[1,2-c]pyrido[2,3-e]pyrimidin-5(3H)-one]",2.23
